Measured values from US11795460B2, “Compositions and methods for TTR gene editing and treating ATTR amyloidosis” (Intellia Therapeutics, Inc., priority 2017, dated 2023).
Strand notation (5' to 3'): a small letter for the sugar, then the base; units joined by * are phosphorothioate-linked, units joined directly phosphodiester-linked; [ ] holds rarer units or linkages, { } end groups; capitals alone tell only the bases. m = 2'-O-methyl; r = 2'-OH (RNA)

What was measured:
[1] = system: TTR; assay: TTR editing in primary human hepatocytes transfected with Spy Cas9 mRNA and dgRNAs (Table 9); type: cell-based; details: dgRNA co-transfected with Spy Cas9 mRNA (SEQ ID NO:2)
How it was run: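 PHH sequentially lipofected with Spy Cas9 mRNA (100 ng), then crRNA plus tracrRNA (25 nM each) dual-guide lipoplex. Cells harvested 24, 48 or 72 h post-transfection; TTR target amplicons sequenced on Illumina MiSeq, editing given as percent reads with indels or substitutions over total reads.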

[2] = system: off-target genomic sites; assay: Off-target oligo insertion based assay in HEK293_Cas9 cells, dgRNAs and sgRNAs (Tables 23, 24); type: cell-based, human; details: for # Sites in HekCas9 cells (Example 5): Table 30, TTR sgRNAs, repeated from Example 5 for comparison
Method: An oligo insertion based assay (See, e.g., Tsai et al., Nature Biotechnology 33, 187-197; 2015) was used to determine potential off-target genomic sites cleaved by Cas9 targeting TTR. Forty-five dgRNAs from Table 1 (and two control guides with known off-target profiles) were screened in the HEK293 Cas9 cells. The human embryonic kidney adenocarcinoma cell line HEK293 constitutively expressing Spy Cas9 (“HEK293_Cas9”) was cultured in DMEM media supplemented with 10% fetal bovine serum and 500 μg/ml G418. Cells were plated at a density of 30,000 cells/well in a 96-well plate 24 hours prior to transfection. Cells were transfected with Lipofectamine RNAiMAX (ThermoFisher, Cat. 13778150) per the manufacturer's protocol. Cells were transfected with a lipoplex containing individual crRNA (15 nM), trRNA (15 nM), and donor oligo with (10 nM) Lipofectamine RNAiMAX (0.3 μL/well) and OptiMem. Cells were lysed 24 hours post transfection and genomic DNA was extracting using Zymo's Quick gDNA 96 Extraction kit (catalog #D3012) following the manufacturer's recommended protocol. The gDNA was quantified using the Qubit High Sensitivity dsDNA kit (Life Technologies). Libraries were prepared per the previously described method in Tsai et al, 2015 with minor modifications. Sequencing was performed on Illumina's MiSeq and HiSeq 2500. The assay identified potential off-target sites for some of the crRNAs which are plotted in FIG. 2.
Additionally, a subset of the guides was assessed for off-target potential as modified sgRNAs in the Hek_Cas9 cells via the oligo based insertion method described above. The off-target results were plotted in FIG. 4.

[3] = system: TTR; assay: TTR editing in HUH7 cells transfected with Spy Cas9 mRNA and dgRNAs (Table 5); type: cell-based, human; details: HUH7 cells co-transfected with Spy Cas9 mRNA (SEQ ID NO:2) and dgRNAs
How it was run: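 HUH7 cells were transfected sequentially with Spy Cas9 mRNA (100 ng) then crRNA and tracer RNA (25 nM each) by lipofection. Genomic DNA was collected 24, 48 or 72 h later. Target site was PCR-amplified and NGS-sequenced, and percent editing was taken as reads with indels or substitutions over total reads.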

[4] = Table 23, TTR dgRNAs in HekCas9 cells, oligo insertion based assay
[5] = Table 24, TTR sgRNAs in HekCas9 cells, insertion detection method

Molecule	Avg % Deletion [1]	Avg % Edit [1]	Avg % Insert [1]	# Sites (off-target integration sites detected) [2, 4]	Avg % Deletion [3]	Avg % Edit [3]	Avg % Insert [3]	# Sites (off-target integration sites detected) [2, 5]	# Sites in HekCas9 cells (Example 5) [2]
AAAGGCUGCUGAUGACACCU (tested as dual guide RNA, chemistry not given here) [CR003353]	4.43%	53.73%	49.50%	2	62.87%	69.18%	7.73%	–	–
AAAGUUCUAGAUGCUGUCCG (tested as dual guide RNA, chemistry not given here) [CR003346]	14.33%	19.97%	5.63%	0	6.97%	18.07%	13.17%	–	–
AAAUAGACACCAAAUCUUAC (tested as dual guide RNA, chemistry not given here) [CR003366]	4.07%	24.53%	20.47%	1	50.32%	69.98%	20.77%	–	–
AAGUGCCUUCCAGUAAGAUU (tested as dual guide RNA, chemistry not given here) [CR003368]	0.60%	11.10%	10.53%	2	29.69%	31.57%	3.08%	–	–
ACGUGUCUUCUCUACACCCA (tested as dual guide RNA, chemistry not given here) [CR005302]	1.13%	34.80%	33.67%	1	–	–	–	–	–
CCCCUACUCCUAUUCCACCA (tested as dual guide RNA, chemistry not given here) [CR003385]	3.60%	36.77%	33.23%	3	–	–	–	–	–
GUCACAGAAACACUCACCGU (tested as dual guide RNA, chemistry not given here) [CR005301]	1.40%	6.77%	5.47%	0	–	–	–	–	–
UGAAUCCAAGUGUCCUCUGA (tested as dual guide RNA, chemistry not given here) [CR005303]	0.50%	35.50%	35.00%	1	–	–	–	–	–
G000498: TTR sgRNA modified sequence, Human, SEQ ID No. 105; guide sequence of CR003359 (nucleic acid) guide: mA*mG*mU*rGrArGrUrCrUrGrGrArGrArGrCrUrGrCrArGrUrUrUrUrArGrAmGmCmUmAmGmAmAmAmUmAmGmCrArArGrUrUrArArArArUrArArGrGrCrUrArGrUrCrCrGrUrUrArUrCrAmAmCmUmUmGmAmAmAmAmAmGmUmGmGmCmAmCmCmGmAmGmUmCmGmGmUmGmCmU*mU*mU*mU	–	–	–	–	–	–	–	82	82
G000501: TTR sgRNA modified sequence, Human, SEQ ID No. 108; guide sequence of CR005300 (nucleic acid) guide: mU*mC*mA*rCrArGrArArArCrArCrUrCrArCrCrGrUrArGrUrUrUrUrArGrAmGmCmUmAmGmAmAmAmUmAmGmCrArArGrUrUrArArArArUrArArGrGrCrUrArGrUrCrCrGrUrUrArUrCrAmAmCmUmUmGmAmAmAmAmAmGmUmGmGmCmAmCmCmGmAmGmUmCmGmGmUmGmCmU*mU*mU*mU	–	–	–	–	–	–	–	4	4
G000568: TTR sgRNA modified sequence, Human, SEQ ID No. 110; guide sequence of CR003391 (nucleic acid) guide: mG*mG*mC*rUrGrUrCrGrUrCrArCrCrArArUrCrCrCrArGrUrUrUrUrArGrAmGmCmUmAmGmAmAmAmUmAmGmCrArArGrUrUrArArArArUrArArGrGrCrUrArGrUrCrCrGrUrUrArUrCrAmAmCmUmUmGmAmAmAmAmAmGmUmGmGmCmAmCmCmGmAmGmUmCmGmGmUmGmCmU*mU*mU*mU	–	–	–	–	–	–	–	937	936
G000500: TTR sgRNA modified sequence, Human, SEQ ID No. 107; guide sequence of CR003337 (nucleic acid) guide: mC*mC*mA*rGrUrCrCrArGrCrArArGrGrCrArGrArGrGrGrUrUrUrUrArGrAmGmCmUmAmGmAmAmAmUmAmGmCrArArGrUrUrArArArArUrArArGrGrCrUrArGrUrCrCrGrUrUrArUrCrAmAmCmUmUmGmAmAmAmAmAmGmUmGmGmCmAmCmCmGmAmGmUmCmGmGmUmGmCmU*mU*mU*mU	–	–	–	–	–	–	–	46	46
G000496: TTR sgRNA modified sequence, Human, SEQ ID No. 103; guide sequence of CR005304 (nucleic acid) guide: mG*mG*mC*rCrGrUrGrCrArUrGrUrGrUrUrCrArGrArArGrUrUrUrUrArGrAmGmCmUmAmGmAmAmAmUmAmGmCrArArGrUrUrArArArArUrArArGrGrCrUrArGrUrCrCrGrUrUrArUrCrAmAmCmUmUmGmAmAmAmAmAmGmUmGmGmCmAmCmCmGmAmGmUmCmGmGmUmGmCmU*mU*mU*mU	–	–	–	–	–	–	–	1	1
G000570: TTR sgRNA modified sequence, Human, SEQ ID No. 111; guide sequence of CR003347 (nucleic acid) guide: mC*mA*mU*rUrGrArUrGrGrCrArGrGrArCrUrGrCrCrUrGrUrUrUrUrArGrAmGmCmUmAmGmAmAmAmUmAmGmCrArArGrUrUrArArArArUrArArGrGrCrUrArGrUrCrCrGrUrUrArUrCrAmAmCmUmUmGmAmAmAmAmAmGmUmGmGmCmAmCmCmGmAmGmUmCmGmGmUmGmCmU*mU*mU*mU	–	–	–	–	–	–	–	19	19
G000572: TTR sgRNA modified sequence, Human, SEQ ID No. 113; guide sequence of CR003385 (nucleic acid) guide: mC*mC*mC*rCrUrArCrUrCrCrUrArUrUrCrCrArCrCrArGrUrUrUrUrArGrAmGmCmUmAmGmAmAmAmUmAmGmCrArArGrUrUrArArArArUrArArGrGrCrUrArGrUrCrCrGrUrUrArUrCrAmAmCmUmUmGmAmAmAmAmAmGmUmGmGmCmAmCmCmGmAmGmUmCmGmGmUmGmCmU*mU*mU*mU	–	–	–	–	–	–	–	15	15
G000497: TTR sgRNA modified sequence, Human, SEQ ID No. 104; guide sequence of CR003335 (nucleic acid) guide: mC*mU*mG*rCrUrCrCrUrCrCrUrCrUrGrCrCrUrUrGrCrGrUrUrUrUrArGrAmGmCmUmAmGmAmAmAmUmAmGmCrArArGrUrUrArArArArUrArArGrGrCrUrArGrUrCrCrGrUrUrArUrCrAmAmCmUmUmGmAmAmAmAmAmGmUmGmGmCmAmCmCmGmAmGmUmCmGmGmUmGmCmU*mU*mU*mU	–	–	–	–	–	–	–	26	26
G000567: TTR sgRNA modified sequence, Human, SEQ ID No. 109; guide sequence of CR003352 (nucleic acid) guide: mG*mA*mA*rArGrGrCrUrGrCrUrGrArUrGrArCrArCrCrGrUrUrUrUrArGrAmGmCmUmAmGmAmAmAmUmAmGmCrArArGrUrUrArArArArUrArArGrGrCrUrArGrUrCrCrGrUrUrArUrCrAmAmCmUmUmGmAmAmAmAmAmGmUmGmGmCmAmCmCmGmAmGmUmCmGmGmUmGmCmU*mU*mU*mU	–	–	–	–	–	–	–	9	9
G000571: TTR sgRNA modified sequence, Human, SEQ ID No. 112; guide sequence of CR005301 (nucleic acid) guide: mG*mU*mC*rArCrArGrArArArCrArCrUrCrArCrCrGrUrGrUrUrUrUrArGrAmGmCmUmAmGmAmAmAmUmAmGmCrArArGrUrUrArArArArUrArArGrGrCrUrArGrUrCrCrGrUrUrArUrCrAmAmCmUmUmGmAmAmAmAmAmGmUmGmGmCmAmCmCmGmAmGmUmCmGmGmUmGmCmU*mU*mU*mU	–	–	–	–	–	–	–	16	16
